The results in this text go back to ChEMBL document CHEMBL1201862, “PubChem BioAssay data set” (2004).

Each structure is given as a SMILES string.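 1) Cells in 96-well plates. 2) Compound, 48 h, 5 concentrations. 3) Linear interpolation between surrounding doses. 4) Unreached endpoint = highest concentration. Abbreviation: GI50, concentration required for 50% inhibition of growth.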 Calls of active or inactive are those of the source. Cut-off read from the data, not from the text of the source: active = GI50 up to about 1.1 µM and inactive = higher.

Among the test systems are 786-0; A549; BT-549; CCRF-CEM; HCT-116; HOP-92; Hs-578T; M14; MDA-MB-231; Malme-3M; NCI-H226; OVCAR-8; RPMI-8226; RXF 393; SF-295; SF-539; SK-OV-3; SNB-19; T47D; UACC-257.
Holding throughout (assay): NCI anticancer screen, dose series, 48 h

As to `Cc1cc(S(=O)(=O)Nc2nc3ccccc3nc2-c2ccc(Cl)cc2)c(S)cc1Cl`, the GI50 was 21 µM (inactive) with 786-0; 16.4 µM (inactive) in the assay on A549; 23.8 µM (inactive) with BT-549; 21.7 µM (inactive) in the assay on CCRF-CEM; 19.4 µM (inactive) with HCT-116; 20.4 µM (inactive) in the assay with HOP-92. Moreover, the GI50 in the assay on Hs-578T was 27 µM (inactive); in the assay on M14, 19.3 µM (inactive); in the assay with MDA-MB-231 it was 24.5 µM (inactive); in the assay on Malme-3M it was 22.7 µM (inactive); in the assay on NCI-H226, 23.1 µM (inactive); in the assay with OVCAR-8, 23.2 µM (inactive). The GI50 with RPMI-8226 was 23.1 µM (inactive); in the assay with RXF 393, 23 µM (inactive); in the assay on SF-295, 18.9 µM (inactive); with SF-539 it was 19.9 µM (inactive); with SK-OV-3, 17.3 µM (inactive); in the assay with SNB-19, 19 µM (inactive). In addition, the GI50 was 14.5 µM (inactive) with T47D and 21.7 µM (inactive) in the assay with UACC-257.
Turning to `CN1CCN(CC(=O)Nc2cccc3ccccc23)CC1`, the GI50 with 786-0, with A549, in the assay with BT-549, in the assay with CCRF-CEM, with HCT-116 and with HOP-92 was > 100 µM (inactive) throughout. Moreover, the GI50 in the assay with Hs-578T, with M14, in the assay on MDA-MB-231, with Malme-3M, in the assay with NCI-H226 and with OVCAR-8 was > 100 µM (inactive) in each case. The GI50 with RPMI-8226, with RXF 393, with SF-295, in the assay on SF-539, in the assay with SK-OV-3 and with SNB-19 was > 100 µM (inactive) each time. Besides, the GI50 with T47D and with UACC-257 was > 100 µM (inactive) throughout.
As for `COc1cc2cc3c4c(cc(OC)c(OC)c4c2cc1OC)CCN3C`, the GI50 with 786-0 was 4.29 µM (inactive); in the assay with A549 it was 9.53 µM (inactive); with BT-549 it was 6.46 µM (inactive); in the assay with CCRF-CEM, 1.36 µM (inactive); in the assay with HCT-116, 5.96 µM (inactive); with HOP-92 it was 9.93 µM (inactive). The GI50 with Hs-578T is 2.63 µM (inactive); with M14, 6.9 µM (inactive); in the assay on MDA-MB-231 it was 7.73 µM (inactive); with Malme-3M it was 8.53 µM (inactive); with NCI-H226, 7.35 µM (inactive); with OVCAR-8, 12.7 µM (inactive). For the same compound, the GI50 was 2.72 µM (inactive) with RPMI-8226; 1.83 µM (inactive) in the assay on RXF 393; 3.07 µM (inactive) in the assay with SF-295; 9.25 µM (inactive) in the assay on SF-539; 9.18 µM (inactive) with SK-OV-3; 12.5 µM (inactive) in the assay with SNB-19. The GI50 was 1.67 µM (inactive) in the assay with T47D and 9.12 µM (inactive) in the assay on UACC-257.
Take `C=C1OC2OC(C)C(NC(=O)OCC(Cl)(Cl)Cl)C(OC(C)=O)C2O1` (stereo not given): the GI50 in the assay with 786-0, with A549, in the assay on BT-549, in the assay on CCRF-CEM, with HCT-116 and in the assay with HOP-92 was > 100 µM (inactive) each time. Also, the GI50 in the assay on Hs-578T was > 100 µM (inactive); with M14, > 100 µM (inactive); in the assay on MDA-MB-231, > 100 µM (inactive); in the assay on Malme-3M, > 100 µM (inactive); with NCI-H226, 43.6 µM (inactive); in the assay with OVCAR-8, > 100 µM (inactive). Also, the GI50 with RPMI-8226, with RXF 393, in the assay on SF-295, in the assay on SF-539, in the assay with SK-OV-3 and in the assay on SNB-19 was > 100 µM (inactive) throughout. For the same compound, the GI50 in the assay on T47D and in the assay with UACC-257 was > 100 µM (inactive) throughout.
Regarding `Nc1cc(Cl)ccc1SSc1ccc(Cl)cc1N`, the GI50 is 13.2 µM (inactive) with 786-0; 23.1 µM (inactive) in the assay on A549; 9.91 µM (inactive) with BT-549; 3.07 µM (inactive) in the assay with CCRF-CEM; 9.16 µM (inactive) in the assay with HCT-116; 41.7 µM (inactive) in the assay with HOP-92. The GI50 with Hs-578T was 8.79 µM (inactive); in the assay on M14, 8.65 µM (inactive); with MDA-MB-231, 5.6 µM (inactive); in the assay on Malme-3M, 15.7 µM (inactive); in the assay on NCI-H226, 2.94 µM (inactive); in the assay on OVCAR-8 it was 16.6 µM (inactive). In addition, the GI50 in the assay on RPMI-8226 is 3.72 µM (inactive); with RXF 393 it was 10.3 µM (inactive); in the assay with SF-295, 11 µM (inactive); in the assay on SF-539, 12 µM (inactive); in the assay on SK-OV-3 it was 15.7 µM (inactive); with SNB-19, 22.6 µM (inactive). Besides, the GI50 is 5.92 µM (inactive) in the assay on T47D and 17.6 µM (inactive) in the assay on UACC-257.
Consider `CC(C)C[C@H](NC(=O)[C@H](Cc1ccccc1)NC(=O)CCc1ccccc1)B(O)O`, for which the GI50 in the assay on 786-0, in the assay on A549, in the assay on BT-549, in the assay with CCRF-CEM, in the assay on HCT-116 and in the assay on HOP-92 was < 0.01 µM (active) throughout. Also, the GI50 with Hs-578T, in the assay on M14, in the assay on MDA-MB-231, with Malme-3M, in the assay with NCI-H226 and in the assay on OVCAR-8 was < 0.01 µM (active) throughout. The GI50 with RPMI-8226, in the assay with RXF 393, in the assay with SF-295, in the assay on SF-539, in the assay on SK-OV-3 and with SNB-19 was < 0.01 µM (active) each time. Besides, the GI50 in the assay on T47D and with UACC-257 was < 0.01 µM (active) in each case.
As to `COC1=C2CC(C)CC(OC)C(OC(=O)CCCN)C(C)/C=C(\C)C(OC(N)=O)C(OC)/C=C\C=C(/C)C(=O)NC(=CC1=O)C2=O` (stereo not given), the GI50 with 786-0 is 3.68 µM (inactive); with A549, 25.5 µM (inactive); with BT-549 it was 4.29 µM (inactive); with CCRF-CEM it was 0.766 µM (active); with HCT-116, 3.98 µM (inactive); in the assay on HOP-92, 4.23 µM (inactive). In addition, the GI50 is 11.6 µM (inactive) in the assay with Hs-578T; 4.56 µM (inactive) in the assay on M14; 9.16 µM (inactive) in the assay with MDA-MB-231; 2.29 µM (inactive) in the assay with Malme-3M; 16.3 µM (inactive) in the assay on NCI-H226; 6.97 µM (inactive) with OVCAR-8. The GI50 with RPMI-8226 was 2.29 µM (inactive); in the assay on RXF 393, 3.12 µM (inactive); in the assay with SF-295, 16.9 µM (inactive); with SF-539, 6.71 µM (inactive); with SK-OV-3, 15.5 µM (inactive); with SNB-19, 15.4 µM (inactive). The GI50 with T47D was 1.09 µM (active); in the assay with UACC-257, 5.64 µM (inactive).
